Data set [1] concerns the target recombinant human Estrogen Receptor alpha ligand binding domain (ER alpha-LBD (GST)) (Homo sapiens (Human), UniProt P03372). Briefly: ERα binding assay (LanthaScreen TR-FRET competition). Conditions: TR-FRET, displacement of Fluormone ES2. The procedure: The ability of compounds to bind to isolated Estrogen Receptor Alpha Ligand binding domain (ER alpha-LBD (GST)) was assessed in competition assays using a LanthaScreen™ Time-Resolved Fluorescence Resonance Energy Transfer (TR-FRET) detection end-point. […] The assay principle is that ER alpha-LBD (GST) is added to a fluorescent ligand to form a receptor/fluorophore complex. A terbium-labelled anti-GST antibody (Product code PV3551) is used to indirectly label the receptor by binding to its GST tag, and competitive binding is detected by a test compound's ability to displace the fluorescent ligand, resulting in a loss of TR-FRET signal between the Tb-anti-GST antibody and the tracer. The assay was performed as follows with all reagent additions carried out using the Beckman Coulter BioRAPTR FRD microfluidic workstation: • 1. Acoustic dispense 120 nL of the test compound into a black low volume 384 well assay plates. • 2. Prepare 1×ER alpha-LBD/Tb-antiGST Ab in ES2 screening buffer and incubate for 15 minutes. • 3. Dispense 6 μL of the 1×[…]/Tb-anti-GST Ab reagent into each well of the assay plate followed by 6 μL of Fluorophore reagent into each well of the assay plate • 4. Cover the assay plate to protect the reagents from light and evaporation, and incubate at room temperature for 4 hours. • 5.
TR-FRET dose response data obtained with each compound was exported into a suitable software package (such as Origin or Genedata) to perform curve fitting analysis. Competitive ER alpha binding was expressed as an IC50 value.
(In TR-FRET formats the signal depends on donor and acceptor labels being close together.)

The target of data set [2] is Estrogen Receptor (ERα) in MCF-7 cells (Homo sapiens (Human), UniProt P03372). Kind of data set: MCF-7 ER down-regulation assay (immuno-fluorescence). It counts as cell-based. The protocol: The Echo uses acoustic technology to perform direct microplate-to-microplate transfers of DMSO compound solutions to assay plates. […] Cells were fixed at room temperature for 20 mins before being washed two times with 250 μL PBS/Proclin (PBS with a Biocide preservative) using a BioTek platewasher, 40 μL of PBS/Proclin was then added to all wells and the plates stored at 4° C. The fixing method described above was carried out on the Integrated Echo 2 workcell. Immunostaining was performed using an automated AutoElisa workcell. […] The plates were incubated overnight at 4° C. […] The mean total intensity was normalized for cell number giving the total intensity per cell. The data was exported into a suitable software package (such as Origin) to perform curve fitting analysis.
Chain of Estrogen Receptor (ERα) in MCF-7 cells (P03372 whole entry): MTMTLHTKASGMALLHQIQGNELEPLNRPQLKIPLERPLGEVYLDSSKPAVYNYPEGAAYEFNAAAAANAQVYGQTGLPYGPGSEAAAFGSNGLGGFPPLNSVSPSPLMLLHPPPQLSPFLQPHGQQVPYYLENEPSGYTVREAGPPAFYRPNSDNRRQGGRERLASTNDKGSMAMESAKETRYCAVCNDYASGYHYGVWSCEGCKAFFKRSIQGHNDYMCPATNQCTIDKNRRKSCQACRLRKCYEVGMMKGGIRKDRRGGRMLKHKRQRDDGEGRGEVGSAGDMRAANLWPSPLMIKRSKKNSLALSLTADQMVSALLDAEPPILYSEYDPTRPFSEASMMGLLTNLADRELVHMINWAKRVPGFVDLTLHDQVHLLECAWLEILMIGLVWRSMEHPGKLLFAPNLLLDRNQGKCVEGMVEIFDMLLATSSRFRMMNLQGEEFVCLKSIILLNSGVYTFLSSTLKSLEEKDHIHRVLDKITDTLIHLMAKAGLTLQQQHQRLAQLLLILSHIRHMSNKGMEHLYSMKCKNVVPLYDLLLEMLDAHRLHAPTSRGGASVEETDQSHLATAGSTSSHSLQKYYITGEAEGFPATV

A short description of data set [3]: log D (shake flask, 1-octanol/aqueous buffer). The data set is classed as physicochemical. An excerpt:
The lipophilicity of a drug is an important physical property which may influence many biological and metabolic properties of a compound, for example the absorption, distribution, metabolism, excretion and toxicity profiles of a compound. The distribution coefficient between 1-octanol and aqueous buffer, Log DO/W, at pH 7.4, is the most commonly used measurement of the lipophilicity of a compound. The current method for measurement of Log DO/W is based on the traditional shake flask technique, but with the modification of measuring compounds in mixtures of ten at a time using UPLC with quantitative mass spectrometry (MS) as a method to measure the relative octanol and aqueous concentrations. […] An additional QC sample Caffeine, with low Log D, are used and randomly placed in all runs. The method has been thoroughly validated against the previous shake flask methodologies.

A short description of data set [4]: Thermodynamic solubility (shake-flask). It counts as physicochemical. Conditions: aqueous phosphate buffer, 25 °C, pH 7.4, aqueous buffer, thermodynamic from solid, aqueous phosphate buffer pH 7.4, 24 hours. The procedure:
The thermodynamic solubility of a research compound is measured under standard conditions. It is a shake-flask approach that uses 10 mM DMSO solutions which are supplied from the Compound Managements liquid store and is a high throughput method. The dried compounds are equilibrated in an aqueous phosphate buffer (pH 7.4) for 24 hours at 25° C., the portion with the dissolved compound is then separated from the remains. The solutions are analyzed and quantified using UPLC/MS/MS, QC-samples are incorporated in each assay-run to ensure the quality of the assay.

A short description of data set [5]: Human plasma protein binding (equilibrium dialysis). It counts as in vitro ADME. Conditions: dialysis 18 hours. The procedure:
The automated equilibrium dialysis assay in human plasma uses the RED (Rapid Equilibrium Dialysis) Device and sample handling. The assay generally runs over two to three days including delivery of results. After dialysis for 18 hours, plasma and buffer samples are prepared for analysis by liquid chromatography and mass spectrometry. Samples are generally tested in singlicates and quantified by LC/MSMS by using a 7-point calibration curve in plasma. The compounds are pooled together in plasma pools up to 10 compounds. Three reference compounds are used in each run, Propranolol, Metoprolol and Warfarin. Warfarin is used as a control in each pool and Propranolol and Metoprolol are placed randomly in each run. An in-house Excel macro is used for preparation of files for the robot and the mass spectrometer and is also used for the calculations of fraction unbound (fu %) in plasma.
(Equilibrium dialysis compares concentrations on both sides of a semipermeable membrane.)

The next data set concerns the target hERG potassium channel (Homo sapiens (Human), UniProt Q12809). Kind of data set: hERG binding assay (automated patch clamp, CHO cells). Conditions: CHO cell line, Nanion Syncropatch 384PE. The data set is classed as cell-based. The protocol:
Reagent preparations include: • 1.
Cell preparations: • 1. If using cell culture; cells to be incubated at 30° C. for approximately 4-6 days prior to being used. Day of assay lift cells using accutase and re-suspend in 20 ml cell buffer to a density of 0.8 to 1e6 cells/ml. • 2. If using assay ready cryovials; rapidly thaw two cryovials at 37° C. and slowly pipette into 23 ml external solution • 3.
All compounds were acoustically dispensed in quadruplicate using a Labcyte Echo. […] Fill 384 well medium resistance 4 hole chips with 40 μl external buffer and perfuse internal buffer to the underside of plate. • 2. Dispense 20 μl of cells into each well of the chip followed by 20 μl of seal enhancer. • 3. Remove 40 μl of reagent from each well to the wash station, leaving a residual volume of 40 μl • 4. Dispense 40 μl of reference buffer with a removal step of 40 μl after 3 min, repeat this step. • 5.
hERG-mediated currents were elicited using a voltage step protocol consisting of acontinuous holding voltage of −80 mV, with a 500 ms step to 60 mV followed by a 500 ms step to −40 mV every 15 seconds. hERG current magnitude was measured automatically from the leak-subtracted traces by the Nanion software by taking the peak of the hERG “tail” current at −40 mV every 15 seconds and taking the last three of these responses for each concentration to generate the concentration-effect curve.
Calculation of results is performed using APC package within Genedata. For the routine normalization of well data with Neutral and Inhibitor control well groups as reference, GeneData Assay Analyzer uses the following equation to normalize the signal values to the desired signal range:
[formula] • x is the measured raw signal value of a well • is the median of the measured signal values for the Central Reference (Neutral) wells on a plate • is the median of the measured signal values for the Scale Reference (Inhibitor) wells on a plate • CR is the desired median normalized value for the Central Reference (Neutral) • SR is the desired median normalized value for the Scale Reference (Inhibitor)
On the technique in general: Block of hERG is tested as a sign of cardiac risk.

Where [6] appears, read: 1-octanol/aqueous buffer, pH 7.4, pH 7.4, 1-octanol/aqueous buffer.
[7] abbreviates: pH 7.4, 1-octanol/aqueous buffer.

≈ marks a conversion by molar mass, not a printed value.

Chain of recombinant human Estrogen Receptor alpha ligand binding domain (ER alpha-LBD (GST)) (P03372 307-554): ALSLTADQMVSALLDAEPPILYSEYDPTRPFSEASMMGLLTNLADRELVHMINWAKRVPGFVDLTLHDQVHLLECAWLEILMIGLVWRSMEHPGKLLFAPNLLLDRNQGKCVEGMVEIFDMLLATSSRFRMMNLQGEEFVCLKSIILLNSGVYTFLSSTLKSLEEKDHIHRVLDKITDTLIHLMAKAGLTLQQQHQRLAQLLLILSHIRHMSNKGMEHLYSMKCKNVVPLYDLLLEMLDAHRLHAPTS
Chain of hERG potassium channel (Q12809 whole entry): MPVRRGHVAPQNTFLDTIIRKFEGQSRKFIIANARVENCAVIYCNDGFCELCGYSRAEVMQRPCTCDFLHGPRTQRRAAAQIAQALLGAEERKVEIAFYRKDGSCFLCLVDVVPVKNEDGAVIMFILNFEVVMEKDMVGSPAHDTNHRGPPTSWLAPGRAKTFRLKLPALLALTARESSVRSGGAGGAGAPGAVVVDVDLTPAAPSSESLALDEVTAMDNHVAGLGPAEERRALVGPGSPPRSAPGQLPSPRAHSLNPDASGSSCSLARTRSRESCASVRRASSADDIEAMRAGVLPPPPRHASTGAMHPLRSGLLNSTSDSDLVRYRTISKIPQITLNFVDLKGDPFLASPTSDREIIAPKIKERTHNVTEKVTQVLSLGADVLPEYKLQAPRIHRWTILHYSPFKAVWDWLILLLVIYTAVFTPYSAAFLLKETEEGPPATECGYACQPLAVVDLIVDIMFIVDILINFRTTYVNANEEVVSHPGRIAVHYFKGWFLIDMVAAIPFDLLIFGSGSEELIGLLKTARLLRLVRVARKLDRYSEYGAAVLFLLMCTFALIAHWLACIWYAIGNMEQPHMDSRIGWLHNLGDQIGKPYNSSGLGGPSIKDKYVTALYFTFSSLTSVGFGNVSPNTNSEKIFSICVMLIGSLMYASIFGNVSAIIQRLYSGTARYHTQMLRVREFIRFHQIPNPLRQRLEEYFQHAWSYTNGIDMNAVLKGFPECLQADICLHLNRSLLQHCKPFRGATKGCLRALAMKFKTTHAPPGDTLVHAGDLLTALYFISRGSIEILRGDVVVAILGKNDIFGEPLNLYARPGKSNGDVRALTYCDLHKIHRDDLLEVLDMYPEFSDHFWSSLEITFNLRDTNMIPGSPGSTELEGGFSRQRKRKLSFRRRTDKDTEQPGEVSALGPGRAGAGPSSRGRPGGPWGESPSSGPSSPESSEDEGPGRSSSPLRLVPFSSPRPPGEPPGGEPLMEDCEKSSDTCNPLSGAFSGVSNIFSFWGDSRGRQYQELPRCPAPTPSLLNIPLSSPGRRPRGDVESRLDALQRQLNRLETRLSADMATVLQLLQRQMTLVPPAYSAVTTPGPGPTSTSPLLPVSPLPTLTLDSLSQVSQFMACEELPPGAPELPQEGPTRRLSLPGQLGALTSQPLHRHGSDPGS

As usually defined, the IC50 is the concentration at which inhibition is half-maximal. As usually defined, the logD is lipophilicity at a set pH, counting ionised and neutral species. Lower therefore signals lower lipophilicity. As usually defined, the solubility is the concentration that dissolves in the medium under given conditions. In the case of `COc1cc(N(C)C2CN(CCCF)C2)ccc1[C@@H]1c2ccc3[nH]ncc3c2C[C@@H](C)N1CC1(F)CC1` [Example 52, N-(4-((6S,8R)-7-((1-fluorocyclopropyl)methyl)-8-methyl-6,7,8,9-tetrahydro-3H-pyrazolo[4,3-f]isoquinolin-6-yl)-3-methoxyphenyl)-1-(3-fluoropropyl)-N-methylazetidin-3-amine], the IC50 in data set [1] was 11 nM; in data set [2], 0.21 nM; at hERG potassium channel it was 2000 nM. Moreover, the pH-dependent lipophilicity (logD) in data set [3] (setting [6]) is 3. Also, the solubility at 24 h in data set [4] amounted to 864 µM (≈ 440 µg/mL). Also, the “Human plasma protein binding (% free)” value in data set [5] is 19 % free.

As for `CC1(C)Cc2c(ccc3[nH]ncc23)[C@@H](c2ccc(NC3CN(CCCF)C3)cn2)N1CC(F)F` [Example 73, (S)-6-(7-(2,2-difluoroethyl)-8,8-dimethyl-6,7,8,9-tetrahydro-3H-pyrazolo[4,3-f]isoquinolin-6-yl)-N-(1-(3-fluoropropyl)azetidin-3-yl)pyridin-3-amine], the figures for the IC50 (in data set [1]; in data set [2]; on hERG potassium channel) were 3.4 nM, 0.77 nM and 12000 nM, respectively. In data set [3] (setting [7]), this compound gave a logD of 3. Moreover, the solubility at 24 h in data set [4] was determined as 925 µM (≈ 437 µg/mL). In data set [5], the “Human plasma protein binding (% free)” value stood at 22 % free.

Take `C[C@@H]1Cc2c(ccc3[nH]nc(F)c23)[C@@H](c2ccc(NC3CN(CCCF)C3)c(F)n2)N1CC(F)(F)F` [Example 39, 2-fluoro-6-((6S,8R)-1-fluoro-8-methyl-7-(2,2,2-trifluoroethyl)-6,7,8,9-tetrahydro-3H-pyrazolo[4,3-f]isoquinolin-6-yl)-N-(1-(3-fluoropropyl)azetidin-3-yl)pyridin-3-amine]: the IC50 was found to be 0.94 nM in data set [1], 0.048 nM in data set [2] and 14000 nM at hERG potassium channel. Besides, the log distribution coefficient (logD) in data set [3] (setting [7]) amounted to 3.7. Besides, the solubility at 24 h in data set [4] was 257 µM (≈ 132 µg/mL). Further, the “Human plasma protein binding (% free)” value in data set [5] amounted to 6.8 % free.

With `C[C@@H]1Cc2c(ccc3[nH]nc(F)c23)[C@@H](c2cnc(NC3CN(CCCF)C3)cn2)N1CC(F)(F)F` [Example 38, 5-((6S,8R)-1-fluoro-8-methyl-7-(2,2,2-trifluoroethyl)-6,7,8,9-tetrahydro-3H-pyrazolo[4,3-f]isoquinolin-6-yl)-N-(1-(3-fluoropropyl)azetidin-3-yl)pyrazin-2-amine], the IC50 in data set [1] was 0.69 nM; in data set [2], 0.19 nM; on hERG potassium channel it was 18000 nM. The same compound came in with a logD in data set [3] (setting [6]) of 3.1. In data set [4], this compound registered a solubility at 24 h of 794 µM (≈ 393 µg/mL). Besides, the “Human plasma protein binding (% free)” value in data set [5] was found to be 13 % free.

Take `COc1cc(NC2CN(CCCF)C2)ccc1[C@]1(C)c2ccc3[nH]ncc3c2C[C@@H](C)N1CC(F)F` [Example 45, N-(4-((6S,8R)-7-(2,2-difluoroethyl)-6,8-dimethyl-6,7,8,9-tetrahydro-3H-pyrazolo[4,3-f]isoquinolin-6-yl)-3-methoxyphenyl)-1-(3-fluoropropyl)azetidin-3-amine]: the half-maximal inhibitory concentration (IC50) in data set [1] is 1.6 nM; in data set [2], 0.3 nM; on hERG potassium channel it was 4200 nM. This compound showed a logD in data set [3] (setting [6]) of 3.9. The same compound came in with a solubility at 24 h in data set [4] of 172 µM (≈ 86.3 µg/mL). Moreover, the “Human plasma protein binding (% free)” value in data set [5] is recorded as 6.2 % free.

With `C[C@@H]1Cc2c(ccc3[nH]nc(F)c23)[C@@H](c2ccc(NC3CN(CCCF)C3)c(F)n2)N1CC(F)(F)CO` [Example 62, 2,2-difluoro-3-((6S,8R)-1-fluoro-6-(6-fluoro-5-((1-(3-fluoropropyl)azetidin-3-yl)amino)pyridin-2-yl)-8-methyl-3,6,8,9-tetrahydro-7H-pyrazolo[4,3-f]isoquinolin-7-yl)propan-1-ol], the IC50 is 1 nM in data set [1], 0.13 nM in data set [2] and above 40000 nM on hERG potassium channel. Also, the logD in data set [3] (setting [6]) came to 2.8. Besides, the solubility at 24 h in data set [4] was found to be 784 µM (≈ 411 µg/mL). Also, the “Human plasma protein binding (% free)” value in data set [5] turned out to be 19 % free.

Turning to `C[C@@H]1Cc2c(ccc3[nH]nc(F)c23)[C@@H](c2ccc(NC3CN(CCCF)C3)cn2)N1CC(F)(F)CO` [Example 61, 2,2-difluoro-3-((6S,8R)-1-fluoro-6-(5-((1-(3-fluoropropyl)azetidin-3-yl)amino)pyridin-2-yl)-8-methyl-3,6,8,9-tetrahydro-7H-pyrazolo[4,3-f]isoquinolin-7-yl)propan-1-ol], the IC50 in data set [1] is 0.88 nM; in data set [2], 0.13 nM; on hERG potassium channel, above 40000 nM. In data set [3] (setting [6]), this compound yielded a logD of 2.7. For the same compound, the solubility at 24 h in data set [4] was 848 µM (≈ 430 µg/mL). Moreover, the “Human plasma protein binding (% free)” value in data set [5] was determined as 29 % free.

For `C[C@@H]1Cc2c(ccc3[nH]ncc23)[C@@H](c2ccc(NC3CN(CCCF)C3)c(F)c2)N1CC(F)(F)F` [Example 41, N-(2-fluoro-4-((6R,8R)-8-methyl-7-(2,2,2-trifluoroethyl)-6,7,8,9-tetrahydro-3H-pyrazolo[4,3-f]isoquinolin-6-yl)phenyl)-1-(3-fluoropropyl)azetidin-3-amine], the results for the IC50 (in data set [1]; in data set [2]; at hERG potassium channel) were 2.4 nM, 0.17 nM and 6500 nM, respectively. In data set [3] (setting [6]), this compound yielded a logD of 4.1. Also, in data set [4], the solubility at 24 h came to 120 µM (≈ 59.2 µg/mL). Moreover, the “Human plasma protein binding (% free)” value in data set [5] turned out to be 2.2 % free.

Source of the values: patent publication US10131663B2, “Chemical compounds” (AstraZeneca AB, priority 2016, dated 2018).
